From US11369615B2, “Agent for improving mitochondrial dysfunction, preventative or therapeutic agent for diseases or symptoms caused by mitochondrial dysfunction, and applications therefor” (JICHI MEDICAL UNIVERSITY, priority 2017, dated 2022)
Counter-ions that a name gives are not always drawn.

What was measured:
[1] = tested on: ME54 cells derived from a patient with Leigh syndrome; test: Oxidative stress test (BSO-induced cell death), ME54 cells; format: cell-based, human; conditions: BSO plus agent 1 μM, 48 hours after addition
Excerpt: (§1) In mitochondrial dysfunction, for example, ATP production is damaged and/or oxidative stress increases, with the result that apoptosis of cells is induced. Because of this, individuals having mitochondrial dysfunction are reported to be less tolerant to oxidative stress, compared to normal individuals (Shrader W D et al., Bioorg Med Chem Lett., Jun. 15, 2011, Vol. 21 (12), p. 3693-8, doi: 10.1016/j.bmc1.2011.04.085. electronically published on Apr. 24, 2011, PubMed PMID: 21600768). Then, oxidative stress was given to the skin fibroblasts of individual patients mentioned above to induce apoptosis. Under the conditions, compounds of the drug library were each administered to the cells. In this manner, a primary screening was carried out. Then, candidate pharmaceutical agents selected by the primary screening were subjected to a secondary screening, which is an in-vitro evaluation test such as a mitochondrial function evaluation test and a microarray expression analysis.
(§2) The oxidative stress test is a known pharmaceutical agent screening method, which was carried out under the conditions where cell death was induced by addition of L-buthionine-(S,R)-sulfoximine (BSO) (Arce P M et al., ACS Med Chem Lett., May 31, 2011, Vol. 2 (8), p. 608-13, doi: 10.1021/m1200095w. eCollection, Aug. 11, 2011, PubMed PMID: 24900356; PubMed Central PMCID: PMC4018135). BSO inhibits synthesis of glutathione serving as an antioxidant in the cells to deplete glutathione, raising the level of active oxygen within the cells. The procedure of the test is as follows. The cells to be used in the test were seeded in a 96-well plate for cell culture so as to satisfy a concentration of 5,000 cells/well and 80 μL medium/well and cultured in a CO2 incubator (37° C., 5% CO2) for 24 hours. Twenty four hours after the culture, BSO and each of the pharmaceutical agents (final concentration of 1 μM) of the drug library were together added to the cells within the wells. Forty eight hours after the addition, survival rates were determined. The survival rates were determined by measuring absorbance of formazan generated by use of cell count reagent SF (Nacalai Tesque, Inc.). As a positive control compound, idebenone (Non Patent Literature 1) approved as a therapeutic agent for Leber's hereditary optic neuritis in Europe, was used in the same concentration.
(§3) An oxidative stress test was carried out by using three fibroblast cell lines derived from patients with a mitochondrial disease and provided in 1-2. The pharmaceutical agent showing the survival rate equal to or more than that of idebenone, a positive control compound, was determined to be effective. The results of oxidative stress test of pharmaceutical agents of the drug library to KCMC10 cells are shown in FIG. 2; the results of oxidative stress test of pharmaceutical agents of the drug library to ME54 cells are shown in FIG. 3; and the results of oxidative stress test of pharmaceutical agents of the drug library to ME110 cells are shown in FIG. 4.

[2] = tested on: KCMC10 cells derived from a patient with Leigh syndrome; test: Oxidative stress test (BSO-induced cell death), KCMC10 cells; format: cell-based, human; conditions: BSO plus agent 1 μM, 48 hours after addition
Excerpt: as §1, §2, §3

[3] = tested on: ME110 cells derived from a patient with MELAS; test: Oxidative stress test (BSO-induced cell death), ME110 cells; format: cell-based, human; conditions: BSO plus agent 1 μM, 48 hours after addition
Excerpt: as §1, §2, §3

[4] = stated as known; cited from earlier work

Structure (SMILES) | survival rate equal to or more than that of idebenone (determined to be effective) [1] | survival rate equal to or more than that of idebenone (determined to be effective) [2] | survival rate equal to or more than that of idebenone (determined to be effective) [3] | ability to pass through the blood-brain barrier [4]
Cc1cc2c(s1)Nc1ccccc1N=C2N1CCN(C)CC1 [Pharmaceutical agent No. 118, Olanzapine] | effective | effective | effective | –
CN1CC2c3ccccc3Oc3ccc(Cl)cc3C2C1 (stereo not drawn) [(I-2)] | – | – | – | known to be able to pass through the blood-brain barrier
c1ccc2c(c1)Nc1ccccc1S2 [Pharmaceutical agent No. 129, Phenothiazine] | effective | effective | effective | known to be able to pass through the blood-brain barrier
CN1CCc2cccc3c2C1Cc1ccc(O)c(O)c1-3 (stereo not drawn) [(I-1)] | – | – | – | known to be able to pass through the blood-brain barrier
CN1C[C@@H]2c3ccccc3Oc3ccc(Cl)cc3[C@H]2C1 [Pharmaceutical agent No. 105, Asenapine maleate] | effective | effective | effective | known to be able to pass through the blood-brain barrier
CN(C)CCCN1c2ccccc2Sc2ccccc21 [Pharmaceutical agent No. 56, Promazine hydrochloride] | effective | effective | effective | known to be able to pass through the blood-brain barrier
CN1CCN(CCCN2c3ccccc3Sc3ccc(Cl)cc32)CC1 [Pharmaceutical agent No. 35, Prochlorperazine dimaleate] | effective | effective | effective | known to be able to pass through the blood-brain barrier
